pIC50: −log10 of the molar value. Some results are limits rather than exact numbers.

One test concerns Pfeiffer cells, lymphoma cells having EZH2 mutation (A677G). In words: Proliferation inhibition of cells of hematologic malignancies (CCK-8, 11 days). In kind it is cell-based. Conditions: 11 days culture, read-out: Cell proliferation inhibitory effect (IC50). The protocol:
The growth inhibitory activity of 1,3-benzodioxole derivative compounds represented by chemical formula I of the present invention against Pfeiffer cells, which are lymphoma cells having EZH2 mutation (A677G), was evaluated.
Pfeiffer was cultured using RPMI1640 containing 10% fetal bovine serum. The cells were inoculated into wells of a 96-well culture dish at 10,000 cells each, and cultured for 11 days after treating with the test material for each concentration. For 11 days, the test material was replaced every three to four days. After culturing, the cells were treated with a cell counting kit-8 (CCK-8) reagent for each well, absorbance was measured at 450 nm, and IC50 values for cell proliferation were obtained through curve fitting of non-linear regression in the GraphPad program (GraphPad Prism 5.0 software).
Regarding `CSc1cc(C)[nH]c(=O)c1CNC(=O)c1cc(-c2ccc(N3C[C@@H](C)O[C@@H](C)C3)nc2)c2c(c1C)OC(C)(C1CCN(CC(F)F)CC1)O2` (single isomer, unassigned) [Compound 48], the pIC50 is ≤ 7.00.

Regarding `CSc1cc(C)[nH]c(=O)c1CNC(=O)c1cc(-c2cnc(N3CCOCC3)nc2)c2c(c1C)OC(C)(C1CCN(CC(F)F)CC1)O2` (single isomer, unassigned) [Compound 71, 2-(1-(2,2-difluoroethyl)piperidin-4-yl)-2,4-dimethyl-N-((6-methyl-4-(methylthio)-2-oxo-1,2-dihydropyridin-3-yl)methyl)-7-(2-morpholinopyrimidin-5-yl)benzo[d][1,3]dioxole-5-carboxamide], the pIC50 is ≥ 8.00. On the same count and under the same terms, next, `CCN1CCN(c2ncc(-c3cc(C(=O)NCc4c(SC)cc(C)[nH]c4=O)c(C)c4c3OC(C)(C3CCN(CC(F)(F)F)CC3)O4)cn2)CC1` (single isomer, unassigned) [Compound 76, 7-(2-(4-ethylpiperazin-1-yl)pyrimidin-5-yl)-2,4-dimethyl-N-((6-methyl-4-(methylthio)-2-oxo-1,2-dihydropyridin-3-yl)methyl)-2-(1-(2,2,2-trifluoroethyl)piperidin-4-yl)benzo[d][1,3]dioxole-5-carboxamide]: ≥ 8.00; `CSc1cc(C)[nH]c(=O)c1CNC(=O)c1cc(-c2ccc(N3C[C@@H](C)O[C@@H](C)C3)nc2)c2c(c1C)OC(C)(C1CCN(CCc3ccccc3)CC1)O2` (single isomer, unassigned) [Compound 55]: ≥ 8.00.

The same test, now with this note: Homo sapiens, Pfeiffer, 264 h, 11 days culture, read-out: Cell proliferation inhibitory effect (IC50).
`CSc1cc(C)[nH]c(=O)c1CNC(=O)c1cc(-c2ccc(N3CCCCC3)cc2)c2c(c1C)OC(C)(C1CCN(CC(F)(F)F)CC1)O2` (centres unmarked) [Compound 90, 2,4-dimethyl-N-((6-methyl-4-(methylthio)-2-oxo-1,2-dihydropyridin-3-yl)methyl)-7-(4-(piperidin-1-yl)phenyl)-2-(1-(2,2,2-trifluoroethyl)piperidin-4-yl)benzo[d][1,3]dioxole-5-carboxamide]: the pIC50 was 7.00 to 8.00. The same measure, in the same setting: as for `CSc1cc(C)[nH]c(=O)c1CNC(=O)c1cc(-c2ccc(N3C[C@@H](C)O[C@@H](C)C3)nc2)c2c(c1C)OC(C)([C@H]1CC[C@H](N3CC(OC(C)C)C3)CC1)O2` (stereo partly drawn) [Compound 105, 7-(6-((2S,6R)-2,6-dimethylmorpholino)pyridin-3-yl)-2-(trans-4-(3-isopropoxyazetidin-1-yl)cyclohexyl)-2,4-dimethyl-N-((6-methyl-4-(methylthio)-2-oxo-1,2-dihydropyridin-3-yl)methyl)benzo[d][1,3]dioxole-5-carboxamide], the figure is ≤ 7.00. For the compound `CSc1cc(C)[nH]c(=O)c1CNC(=O)c1cc(-c2ccc(N3C[C@@H](C)O[C@@H](C)C3)nc2)c2c(c1C)OC(C)([C@H]1CC[C@H](N(C)CC(F)F)CC1)O2` (some centres unmarked) [Compound 109], the pIC50 is ≥ 8.00.

Consider `CCCCN(C)c1ncc(-c2cc(C(=O)NCc3c(SC)cc(C)[nH]c3=O)c(C)c3c2OC(C)(C2CCN(CC(F)(F)F)CC2)O3)cn1` (centres unmarked) [Compound 99], for which the pIC50 was ≤ 7.00.

Consider `CSc1cc(C)[nH]c(=O)c1CNC(=O)c1cc(-c2ccc(N3CCSCC3)nc2)c2c(c1C)OC(C)(C1CCN(CC(F)(F)F)CC1)O2` (centres unmarked) [Compound 34, 2,4-dimethyl-N-((6-methyl-4-(methylthio)-2-oxo-1,2-dihydropyridin-3-yl)methyl)-7-(6-thiomorpholinopyridin-3-yl)-2-(1-(2,2,2-trifluoroethyl)piperidin-4-yl)benzo[d][1,3]dioxole-5-carboxamide], for which the pIC50 is ≥ 8.00. With `CSc1cc(C)[nH]c(=O)c1CNC(=O)c1cc(-c2ccc(Cl)s2)c2c(c1C)OC(C)([C@H]1CC[C@H](N(C)C)CC1)O2` (stereo partly drawn) [Compound 19, 7-(5-chlorothiophen-2-yl)-2-(trans-4-(dimethylamino)cyclohexyl)-2,4-dimethyl-N-((6-methyl-4-(methylthio)-2-oxo-1,2-dihydropyridin-3-yl)methyl)benzo[d][1,3]dioxole-5-carboxamide], the pIC50 was ≥ 8.00. Still for that read-out and setting: as for `CSc1cc(C)[nH]c(=O)c1CNC(=O)c1cc(-c2ccsc2)c2c(c1C)OC(C)(C1CCC(N(C)C)CC1)O2` (centres unmarked) [Compound 42, 2-(4-(dimethylamino)cyclohexyl)-2,4-dimethyl-N-((6-methyl-4-(methylthio)-2-oxo-1,2-dihydropyridin-3-yl)methyl)-7-(thiophen-3-yl)benzo[d][1,3]dioxole-5-carboxamide], the figure is ≥ 8.00; as for `CSc1cc(C)[nH]c(=O)c1CNC(=O)c1cc(-c2cnc(N3CCCCC3)nc2)c2c(c1C)OC(C)([C@H]1CC[C@H](N(C)C)CC1)O2` (stereo partly drawn) [Compound 4, 2-(trans-4-(dimethylamino)cyclohexyl)-2,4-dimethyl-N-((6-methyl-4-(methylthio)-2-oxo-1,2-dihydropyridin-3-yl)methyl)-7-(2-(piperidin-1-yl)pyrimidin-5-yl)benzo[d][1,3]dioxole-5-carboxamide], ≥ 8.00. The same measure, in the same setting: next, `CSc1cc(C)[nH]c(=O)c1CNC(=O)c1cc(-c2cnc(N3C[C@@H](C)O[C@@H](C)C3)nc2)c2c(c1C)OC(C)([C@H]1CC[C@H](N(C)C)CC1)O2` (stereo partly drawn) [Compound 2, 2-(trans-4-(dimethylamino)cyclohexyl)-7-(2-((2S,6R)-2,6-dimethylaminomorpholino)pyrimidin-5-yl)-2,4-dimethyl-N-((6-methyl-4-(methylthio)-2-oxo-1,2-dihydropyridin-3-yl)methyl)benzo[d][1,3]dioxole-5-carboxamide]: ≥ 8.00. For `COCCN(C)[C@H]1CC[C@H](C2(C)Oc3c(-c4ccc(OC)nc4)cc(C(=O)NCc4c(SC)cc(C)[nH]c4=O)c(C)c3O2)CC1` (stereo partly drawn) [Compound 28, 2-(trans-4-((2-methoxyethyl)(methyl)amino)cyclohexyl)-7-(6-methoxypyridin-3-yl)-2,4-dimethyl-N-((6-methyl-4-(methylthio)-2-oxo-1,2-dihydropyridin-3-yl)methyl)benzo[d][1,3]dioxole-5-carboxamide], the pIC50 was ≥ 8.00. On the same count and under the same terms, as for `CSc1cc(C)[nH]c(=O)c1CNC(=O)c1cc(-c2ccsc2)c2c(c1C)OC(C)([C@H]1CC[C@H](N(C)C)CC1)O2` (stereo partly drawn) [Compound 11, 2-(trans-4-(dimethylamino)cyclohexyl)-2,4-dimethyl-N-((6-methyl-4-(methylthio)-2-oxo-1,2-dihydropyridin-3-yl)methyl)-7-(thiophene-3-yl)benzo[d][1,3]dioxole-5-carboxamide], the figure is ≥ 8.00; as for `CSc1cc(C)[nH]c(=O)c1CNC(=O)c1cc(-c2ccc(N3CCOCC3)cc2)c2c(c1C)OC(C)([C@H]1CC[C@H](N(C)C)CC1)O2` (stereo partly drawn) [Compound 9, 2-(trans-4-(dimethylamino)cyclohexyl)-2,4-dimethyl-N-((6-methyl-4-(methylthio)-2-oxo-1,2-dihydropyridin-3-yl)methyl)-7-(4-morpholinophenyl)benzo[d][1,3]dioxole-5-carboxamide], ≥ 8.00.

On to `CSc1cc(C)[nH]c(=O)c1CNC(=O)c1cc(-c2ccc(N3C[C@@H](C)O[C@@H](C)C3)nc2)c2c(c1C)OC(C)([C@H]1CC[C@H](N(C)C3CCCCC3)CC1)O2` (stereo partly drawn) [Compound 114, 2-(trans-4-(cyclohexyl(methyl)amino)cyclohexyl)-7-(6-((2S,6R)-2,6-dimethylmorpholino)pyridin-3-yl)-2,4-dimethyl-N-((6-methyl-4-(methylthio)-2-oxo-1,2-dihydropyridin-3-yl)methyl)benzo[d][1,3]dioxole-5-carboxamide], for which the pIC50 was ≥ 8.00.

For the origin of these results see US20250059180A1 (DONG WHA PHARM. CO., LTD., priority 2022, published 2025).
